Laboratory results reported in patent US9457005B2, “Compositions and methods for increasing insulin sensitivity” (Orexigen Therapeutics, Inc., priority 2005, dated 2016).
Where “and” joins values, the source holds several entries; their conditions need not be identical. Equal values may be shown once.

Columns and labels:
blood glucose levels [1] = experiment: Insulin tolerance test, naltrexone and bupropion, glucose AUC (Example 8); assay type: in vivo, mice; conditions: naltrexone 3 mg/kg, bupropion 50 mg/kg
Experimental: (§1) A baseline blood glucose determination was made two hours post-injection. Mice were then given a standard I.P. injection of insulin. Blood glucose levels were then followed for two hours (at 15 min, 30 min, 1 h and 2 h). […] Glucose levels are in mg/dl.
Total areas under the curve (AUC) were calculated based on glucose levels at each time point for each mouse. AUC is a summation of glucose levels observed at each time point.

blood glucose levels [2] = experiment: Blood glucose after olanzapine minipump and zonisamide injections (Example 9); assay type: in vivo, Female Sprague-Dawley rats; conditions: rats; olanzapine 1.75 mg/day by minipump, zonisamide 26 mg/kg twice daily; 13 days after olanzapine implant, 6 days after zonisamide injections began; vehicle 92.2
Experimental: Female Sprague-Dawley rats, weighing about 235 grams at the start of the experiment were used. […] The rats were subsequently returned to their home cages after recovery. The minipumps delivered 5 μL per hour for 14 days. […] The animals were housed individually and supplied with standard laboratory chow. Food consumed and animal weights were recorded every day. […] Rats were allowed to recover after pump implantation, and then received twice daily injections of zonisamide 26 mg/kg. […] The results are shown below (Table 5).

blood glucose levels [3] = experiment: Insulin tolerance test, naltrexone and fluoxetine (Example 7); assay type: in vivo, Mice; conditions: for Blood glucose, 15 min / Blood glucose, 30 min / Blood glucose, 1 h / Blood glucose, 2 h / Blood glucose, Baseline: individual mice (n=3), I.P. fluoxetine 8.5 mg/kg and/or naltrexone 2.5 mg/kg; for Blood glucose, 15 min: 15 min after I.P. insulin; for Blood glucose, 30 min: 30 min after I.P. insulin; for Blood glucose, 1 h: 1 h after I.P. insulin; for Blood glucose, 2 h: 2 h after I.P. insulin; for Blood glucose, Baseline: baseline two hours post-injection, before I.P. insulin; for Effect on insulin tolerance / insulin resistance (in words): mice, fluoxetine 8.5 mg/kg, naltrexone 2.5 mg/kg I.P., compared with vehicle or either compound alone
Experimental: as §1

| Compound | Blood Glucose, Average (blood glucose levels [2]) | Blood glucose, 15 min (blood glucose levels [3]) | Blood glucose, 30 min (blood glucose levels [3]) | Blood glucose, 1 h (blood glucose levels [3]) | Blood glucose, 2 h (blood glucose levels [3]) | Blood glucose, Baseline (blood glucose levels [3]) | Effect on insulin tolerance / insulin resistance (in words) (blood glucose levels [3]) | also measured |
| --- | --- | --- | --- | --- | --- | --- | --- | --- |
| CC(NC(C)(C)C)C(=O)c1cccc(Cl)c1 (centres unmarked) [Bupropion, bupropion] |  |  |  |  |  |  |  | Total area under the curve (AUC) of glucose levels, each mouse (blood glucose levels [1]; individual mice (n=12), summation of glucose levels at each time point): 13613 and 12038 and 9083 and 14003 and 9668 and 8003 and 8715 (2×); Decrease in AUC versus vehicle (blood glucose levels [1]): 4.3%; Mean AUC as % of vehicle AUC (blood glucose levels [1]; vehicle mean=11136.2): 95.7% |
| Cc1cc2c(s1)Nc1ccccc1N=C2N1CCN(C)CC1 [Olanzapine, olanzapine] | 120.4 mg/dL |  |  |  |  |  |  |  |
| NS(=O)(=O)Cc1noc2ccccc12 [Zonisamide, zonisamide] | 117.6 mg/dL |  |  |  |  |  |  |  |
| CNCCC(Oc1ccc(C(F)(F)F)cc1)c1ccccc1 (centres unmarked) [fluoxetine] |  | 63 mg/dL and 82 mg/dL and 84 mg/dL | 93 mg/dL and 90 mg/dL and 80 mg/dL | 118 mg/dL and 138 mg/dL and 89 mg/dL | 228 mg/dL and 169 mg/dL and 189 mg/dL | 135 mg/dL and 161 mg/dL and 145 mg/dL | neither fluoxetine nor naltrexone alone had an effect on insulin tolerance |  |
| O=C1CC[C@@]2(O)[C@H]3Cc4ccc(O)c5c4[C@@]2(CCN3CC2CC2)[C@H]1O5 [naltrexone] |  | 68 mg/dL and 62 mg/dL and 65 mg/dL | 84 mg/dL and 82 mg/dL and 81 mg/dL | 80 mg/dL and 127 mg/dL | 181 mg/dL and 175 mg/dL and 186 mg/dL | 137 mg/dL and 111 mg/dL and 134 mg/dL | neither fluoxetine nor naltrexone alone had an effect on insulin tolerance |  |
